These results are taken from patent US12331041B2, “GLP-1 receptor agonists and uses thereof” (Pfizer Inc., priority 2018, dated 2025).

The target of assay [1] is T1, human GLP-1R (Homo sapiens, UniProt P43220, G168S).
T1 construct: expressed in transfected cells
Put plainly: CHO GLP-1R Clone H6 - Assay 1 (HTRF cAMP agonist assay). The format is cell-based. To be noted: for EC50: CHO Clone H6, high GLP-1R density, cAMP, geometric mean; for Emax: CHO Clone H6, relative to saturating full agonist GLP-1 7-36 (1 μM), arithmetic mean. In outline: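 CHO Clone H6 cells stably expressing human GLP-1R (G168S) were plated 48 h, then given compound for 30 min at 37° C in HBSS/0.1% BSA/HEPES with 100 μM IBMX and 1% DMSO. cAMP was measured by HTRF against a standard curve.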
(TR-FRET usually uses a lanthanide donor and a delayed reading to cut background.)

The target in assay [2] is T2, human GLP-1R (Homo sapiens, UniProt P43220, L260F).
T2 construct: expressed in transfected cells; host or cells: CHO Flp-In T-REx, clonal line C6 (pcDNA5-FRT-TO)
T2 sequence (P43220 24-463 L260F): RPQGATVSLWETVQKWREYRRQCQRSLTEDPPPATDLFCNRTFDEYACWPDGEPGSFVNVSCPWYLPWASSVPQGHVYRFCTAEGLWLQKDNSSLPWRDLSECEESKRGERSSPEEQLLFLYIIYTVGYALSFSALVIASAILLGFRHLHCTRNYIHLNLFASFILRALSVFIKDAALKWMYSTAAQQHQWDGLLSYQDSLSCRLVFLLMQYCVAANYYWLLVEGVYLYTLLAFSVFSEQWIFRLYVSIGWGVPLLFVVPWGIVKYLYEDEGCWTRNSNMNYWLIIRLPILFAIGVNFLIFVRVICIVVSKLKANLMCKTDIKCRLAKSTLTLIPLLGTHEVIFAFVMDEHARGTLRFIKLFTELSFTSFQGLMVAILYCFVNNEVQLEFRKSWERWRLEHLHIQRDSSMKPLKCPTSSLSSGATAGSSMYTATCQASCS
Put plainly: CHO GLP-1R Clone C6 - Assay 2 (HTRF cAMP agonist assay). It is filed as cell-based. To be noted: for EC50: CHO clone C6, low GLP-1R density, cAMP, geometric mean; for Emax: CHO clone C6, relative to saturating full agonist GLP-1 (1 μM), arithmetic mean.

Structures can show the parent of a compound that is named as a salt.

A word on the EC50: it is the concentration that produces a half-maximal response. As usually defined, the Emax is the size of the effect at its maximum, as opposed to the concentration needed.

T1 sequence (P43220 24-463 G168S): as the sequence (P43220 24-463 L260F) above, with G145S, F237L counted along it

Take `Cn1c(C2CC23CCN(c2nc(OCc4ccc(C#N)cc4F)c(F)cc2F)CC3)nc2ccc(C(=O)O)cc21` (stereo not shown) [Example 59, 2-(6-{6-[(4-cyano-2-fluorobenzyl)oxy]-3,5-difluoropyridin-2-yl}-6-azaspiro[2.5]oct-1-yl)-1-methyl-1H-benzimidazole-6-carboxylic acid, trifluoroacetate salt]: in assay [1], it took 6.8 nM to reach a half-maximal effect (EC50) and the Emax came to 80%. In assay [2], the half-maximal effective concentration (EC50) was 120 nM and the Emax stood at 85%.

Turning to `Cn1cnnc1Cn1c(C2CC23CCN(c2nc(OCc4ccc(Cl)cc4F)c(F)cc2F)CC3)nc2ccc(C(=O)O)cc21` (stereo not shown) [Example 60, 2-(6-{6-[(4-chloro-2-fluorobenzyl)oxy]-3,5-difluoropyridin-2-yl}-6-azaspiro[2.5]oct-1-yl)-1-[(4-methyl-4H-1,2,4-triazol-3-yl)methyl]-1H-benzimidazole-6-carboxylic acid, trifluoroacetate salt], the figures for the EC50 in assay [1] and in assay [2] were 5 nM and 110 nM, respectively. Besides, the Emax in assay [1] turned out to be 91%; in assay [2], 110%.

Turning to `N#Cc1ccc(COc2nc(N3CCC4(CC3)CC4c3nc4ccc(C(=O)O)cc4n3Cc3ncco3)c(F)cc2F)c(F)c1` (stereo not shown) [Example 61, 2-(6-{6-[(4-cyano-2-fluorobenzyl)oxy]-3,5-difluoropyridin-2-yl}-6-azaspiro[2.5]oct-1-yl)-1-(1,3-oxazol-2-ylmethyl)-1H-benzimidazole-6-carboxylic acid, trifluoroacetate salt], the concentration for a half-maximal effect (EC50) in assay [1] amounted to 1.1 nM; in assay [2], 26 nM. Besides, the Emax worked out at 68% in assay [1] and 74% in assay [2].

In assay [1], `O=C(O)c1ccc2nc(CN3CCC(c4ccnc(OCc5ccc(Cl)cc5F)n4)CC3)n(C[C@@H]3CCO3)c2c1` [Example 62, 2-[(4-{2-[(4-Chloro-2-fluorobenzyl)oxy]pyrimidin-4-yl}piperidin-1-yl)methyl]-1-[(2S)-oxetan-2-ylmethyl]-1H-benzimidazole-6-carboxylic acid] displayed a concentration for a half-maximal effect (EC50) of 4.4 nM and an Emax of 86%. In assay [2], the EC50 was 110 nM and the Emax is 98%.

Turning to `CCn1nncc1Cn1c(CN2CCC(c3ccnc(OCc4ccc(Cl)cc4F)n3)CC2)nc2ccc(C(=O)O)cc21` [Example 64, 2-[(4-{2-[(4-chloro-2-fluorobenzyl)oxy]pyrimidin-4-yl}piperidin-1-yl)methyl]-1-[(1-ethyl-1H-1,2,3-triazol-5-yl)methyl]-1H-benzimidazole-6-carboxylic acid], in assay [1], the EC50 worked out at 24 nM and the Emax was determined as 96%. Also, in assay [2], the EC50 turned out to be 100 nM and the maximal effect (Emax) was determined as 100%.

Turning to `COCCn1c(CN2CCC(c3ccnc(OCc4ccc(Cl)cc4F)n3)CC2)nc2ccc(C(=O)O)cc21` [Example 65, 2-[(4-{2-[(4-chloro-2-fluorobenzyl)oxy]pyrimidin-4-yl}piperidin-1-yl)methyl]-1-(2-methoxyethyl)-1H-benzimidazole-6-carboxylic acid, hydrochloride salt], in assay [1], the response was half-maximal at 88 nM (EC50) and the maximal effect (Emax) came out at 85%. In addition, in assay [2], the EC50 came out at 1700 nM and the Emax is 110%.

In assay [1], `O=C(O)c1ccc2nc(CN3CCC(c4ccnc(OCc5ccc(Cl)cc5F)n4)CC3)n(C[C@@H]3CCO3)c2n1` [Example 67, ammonium 2-[(4-{2-[(4-chloro-2-fluorobenzyl)oxy]pyrimidin-4-yl}piperidin-l-yl)methyl]-3-[(2S)-oxetan-2-ylmethyl]-3H-imidazo[4,5-b]pyridine-5-carboxylate] yielded a concentration for a half-maximal effect (EC50) of 3.3 nM and a maximal response (Emax) of 90%. In addition, in assay [2], the EC50 was found to be 52 nM and the Emax stood at 120%.
